Data as given in ChEMBL document CHEMBL6177948, “Discovery of potential Leonurine-based therapeutic lead MJ210 attenuates Parkinson's disease pathogenesis via NF-κB and MAPK pathways: Mechanistic insights from in vitro and in vivo rotenone models” (Eur J Med Chem, 2025).
Active and inactive are the calls of the source. No cut-off for these calls is given here.

What was measured:
SH-SY5Y [1] = experiment: Reversal of rotenone-induced mitochondrial membrane depolarization in human SH-SY5Y cells assessed as decrease in JC-10 monomers by measuring green fluorescence at 5 uM preincubated with compound for 24 hrs followed by rotenone addition and measured after 24 hrs by JC-10 based fluorescence microscopic analysis; format: functional, cell-based
Rattus norvegicus [2] = experiment: Anti-parkinson activity in rotenone-induced male Wistar rat model assessed as increase in cage lid hold time at 5 mg/kg, ip pretreated with compound every alternative days followed by rotenone addition and measured after 42 days by inverted grid test; format: functional, organism-based; settings: time 42.0 day
SH-SY5Y [3] = experiment: (§1) Neuroprotective activity against rotenone-induced mitochondrial ROS generation in human SH-SY5Y cells assessed as decrease in ROS level at 5 uM preincubated with compound for 24 hrs followed by rotenone addition and measured after 24 hrs by Hoechst 33258 staining based fluorescence microscopic analysis; format: functional, cell-based; settings: time 48.0 hrs
SH-SY5Y [4] = experiment: Reversal of rotenone-induced mitochondrial membrane depolarization in human SH-SY5Y cells assessed as increase in aggregates fluorescence intensity at 5 uM preincubated with compound for 24 hrs followed by rotenone addition and measured after 24 hrs by JC-10 based fluorescence microscopic analysis; format: functional, cell-based; settings: time 48.0 hrs
Rattus norvegicus [5] = experiment: Anti-parkinson activity in rotenone-induced neurodegeneration in male Wistar rat model assessed as reduction in necrosis in striatum at 5 mg/kg, ip pretreated with compound every alternative days followed by rotenone addition and measured after 42 days by Nissl staining based analysis; format: functional, organism-based; settings: time 42.0 day
SH-SY5Y [6] = experiment: Reversal of rotenone-induced mitochondrial membrane depolarization in human SH-SY5Y cells assessed as increase in aggregates to monomer ratio at 5 uM preincubated with compound for 24 hrs followed by rotenone addition and measured after 24 hrs by JC-10 based fluorescence microscopic analysis; format: functional, cell-based; settings: time 48.0 hrs
Rattus norvegicus [7] = experiment: (§2) Anti-parkinson activity in rotenone-induced neurodegeneration in male Wistar rat model assessed as reduction in pyknotic neurons in striatum at 5 mg/kg, ip pretreated with compound every alternative days followed by rotenone addition and measured after 42 days by Nissl staining based analysis; format: functional, organism-based; settings: time 42.0 day
SH-SY5Y [8] = experiment: as §1, with “Mito Tracker” for “Hoechst 33258”; format: functional, cell-based; settings: time 48.0 hrs
[9] = Drug excretion in male Wistar rat brain at 50 mg/kg, ip measured after 4.25 hrs; format: ADME, organism-based; settings: in vivo
Rattus norvegicus [10] = experiment: Anti-parkinson activity in rotenone-induced neurodegeneration in male Wistar rat model assessed as reduction in necrosis in cortex at 5 mg/kg, ip pretreated with compound every alternative days followed by rotenone addition and measured after 42 days by Nissl staining based analysis; format: functional, organism-based; settings: time 42.0 day
[11] = Toxicity in male Wistar rat assessed as change in kidney morphology at 1 to 10 mg/kg by H and E staining based analysis; format: organism-based; settings: in vivo, dose 1-10 mg/kg
Rattus norvegicus [12] = experiment: Anti-parkinson activity in rotenone-induced male Wistar rat model assessed as increase DAT expression in substantia nigra at 5 mg/kg, ip pretreated with compound every alternative days followed by rotenone addition and measured after 42 days by Western blotting analysis; format: functional, organism-based; settings: time 42.0 day
SH-SY5Y [13] = experiment: Anti-inflammatory activity in rotenone-induced human SH-SY5Y cells assessed as reduction in IL-6 expression by Western blotting analysis; format: functional, cell-based
SH-SY5Y [14] = experiment: Anti-inflammatory activity against rotenone-induced human SH-SY5Y cells assessed as reduction in iNOS mRNA expression level by RT-qPCR analysis; format: functional, cell-based
Rattus norvegicus [15] = experiment: (§3) In vivo inhibition of MAPK signaling pathway in rotenone-induced parkinson disease male Wistar rat model assessed as reduction in JNK phosphorylation level in substantia nigra at 5 mg/kg, ip pretreated with compound every alternative days followed by rotenone addition and measured after 42 days by Western blotting analysis; format: functional, organism-based; settings: time 42.0 day
Rattus norvegicus [16] = experiment: Anti-inflammatory activity in rotenone-induced male Wistar rat model assessed as reduction in PGE2 expression level in striatum at 5 mg/kg, ip pretreated with compound every alternative days followed by rotenone addition and measured after 42 days by ELISA; format: functional, organism-based; settings: time 42.0 day
Rattus norvegicus [17] = experiment: Anti-parkinson activity in rotenone-induced neurodegeneration in male Wistar rat model assessed as minimal neuronal loss in cortex at 5 mg/kg, ip pretreated with compound every alternative days followed by rotenone addition and measured after 42 days by H and E staining based analysis; format: functional, organism-based; settings: time 42.0 day
SH-SY5Y [18] = experiment: as §1, with “morphological changes” for “ROS generation”, “intact tubular” for “decrease in ROS level”, “Mito Tracker” for “Hoechst 33258”; format: functional, cell-based; settings: time 48.0 hrs
Rattus norvegicus [19] = experiment: Anti-parkinson activity in rotenone-induced male Wistar rat model assessed as increase in TH expression in substantia nigra at 5 to 10 mg/kg, ip pretreated with compound every alternative days followed by rotenone addition and measured after 42 days by Western blotting analysis; format: functional, organism-based; settings: dose 5-10 mg/kg, time 42.0 day
Rattus norvegicus [20] = experiment: as §3, with “P-38” for “JNK”, “striatum” for “substantia nigra”; format: functional, organism-based; settings: time 42.0 day
Rattus norvegicus [21] = experiment: Anti-inflammatory activity in rotenone-induced male Wistar rat model assessed as reduction in IL-1beta expression level in striatum at 5 mg/kg, ip pretreated with compound every alternative days followed by rotenone addition and measured after 42 days by ELISA; format: functional, organism-based; settings: time 42.0 day
SH-SY5Y [22] = experiment: Anti-inflammatory activity against rotenone-induced human SH-SY5Y cells assessed as reduction in TNF-alpha mRNA expression level by RT-qPCR analysis; format: functional, cell-based
Rattus norvegicus [23] = experiment: Anti-parkinson activity in rotenone-induced male Wistar rat model assessed as increase in TH expression in substantia nigra at 1 mg/kg, ip pretreated with compound every alternative days followed by rotenone addition and measured after 42 days by Western blotting analysis; format: functional, organism-based; settings: time 42.0 day
[24] = Toxicity in male Wistar rat assessed as change in cellular structure of liver at 1 to 10 mg/kg by H and E staining based analysis; format: organism-based; settings: in vivo, dose 1-10 mg/kg
Rattus norvegicus [25] = experiment: Anti-parkinson activity in rotenone-induced neurodegeneration in male Wistar rat model assessed as minimal neuronal loss in striatum at 5 mg/kg, ip pretreated with compound every alternative days followed by rotenone addition and measured after 42 days by H and E staining based analysis; format: functional, organism-based; settings: time 42.0 day
Rattus norvegicus [26] = experiment: Anti-parkinson activity in rotenone-induced neurodegeneration in male Wistar rat model assessed as reduced edema in substantia nigra at 5 mg/kg, ip pretreated with compound every alternative days followed by rotenone addition and measured after 42 days by H and E staining based analysis; format: functional, organism-based; settings: time 42.0 day
[27] = Toxicity in male Wistar rat assessed as change in cellular structure of heart at 1 to 10 mg/kg by H and E staining based analysis; format: organism-based; settings: in vivo, dose 1-10 mg/kg
SH-SY5Y [28] = experiment: Inhibition of MAPK signaling pathway in rotenone-induced human SH-SY5Y cells assessed as reduction in P-38 phosphorylation level by ELISA; format: cell-based
Rattus norvegicus [29] = experiment: Improvement in rotenone-induced depression-like behavior in male Wistar rat model assessed as improvement in sucrose intake at 5 mg/kg, ip pretreated with compound every alternative days followed by rotenone addition and measured after 42 days by sucrose preference test; format: functional, organism-based; settings: time 42.0 day
SH-SY5Y [30] = experiment: as §1, with “neuronal apoptosis” for “mitochondrial ROS generation”, “number of apoptotic cells” for “ROS level”; format: functional, cell-based; settings: time 48.0 hrs
Rattus norvegicus [31] = experiment: as §2, with “substantia nigra” for “striatum”; format: functional, organism-based; settings: time 42.0 day
Rattus norvegicus [32] = experiment: Anti-parkinson activity in rotenone-induced neurodegeneration in male Wistar rat model assessed as reduction in necrosis in substantia nigra at 5 mg/kg, ip pretreated with compound every alternative days followed by rotenone addition and measured after 42 days by Nissl staining based analysis; format: functional, organism-based; settings: time 42.0 day
SH-SY5Y [33] = experiment: as §1, with “morphological changes” for “ROS generation”, “filamentous mitochondrial shape” for “decrease in ROS level”, “Mito Tracker” for “Hoechst 33258”; format: functional, cell-based; settings: time 48.0 hrs

What does the source list for `COc1cc(CCC(=O)N2CCCCC2)cc(OC)c1OC(=O)c1ccccn1`?
Activity (SH-SY5Y [1]): Active; Activity (Rattus norvegicus [2]): Active; Activity (SH-SY5Y [3]): Active; Activity (SH-SY5Y [4]): Active; Activity (Rattus norvegicus [5]): Active; Activity (SH-SY5Y [6]): Active; Activity (Rattus norvegicus [7]): Active; Activity (SH-SY5Y [8]): Active; Drug excretion [9]: Active; Activity (Rattus norvegicus [10]): Active; Activity [11]: Non-toxic; Activity (Rattus norvegicus [12]): Active; Activity (SH-SY5Y [13]): Active; Activity (SH-SY5Y [14]): Active; inhibition (Rattus norvegicus [15]): Active; Activity (Rattus norvegicus [16]): Active; Activity (Rattus norvegicus [17]): Active; Activity (SH-SY5Y [18]): Active; Activity (Rattus norvegicus [19]): Active; inhibition (Rattus norvegicus [20]): Active; Activity (Rattus norvegicus [21]): Active; Activity (SH-SY5Y [22]): Active; Activity (Rattus norvegicus [23]): Active; Activity [24]: Non-toxic; Activity (Rattus norvegicus [25]): Active; Activity (Rattus norvegicus [26]): Active; Activity [27]: Non-toxic; inhibition (SH-SY5Y [28]): Active; Activity (Rattus norvegicus [29]): Active; Activity (SH-SY5Y [30]): Active; Activity (Rattus norvegicus [31]): Active; Activity (Rattus norvegicus [32]): Active; Activity (SH-SY5Y [33]): Active
